Common to all, as to type: cell-based
The target in experiment [1] is T1, human TLR8 (Homo sapiens, UniProt Q9NR97).
T1 construct: host or cells: HEK-Blue cells
T1 sequence (Q9NR97 27-1041): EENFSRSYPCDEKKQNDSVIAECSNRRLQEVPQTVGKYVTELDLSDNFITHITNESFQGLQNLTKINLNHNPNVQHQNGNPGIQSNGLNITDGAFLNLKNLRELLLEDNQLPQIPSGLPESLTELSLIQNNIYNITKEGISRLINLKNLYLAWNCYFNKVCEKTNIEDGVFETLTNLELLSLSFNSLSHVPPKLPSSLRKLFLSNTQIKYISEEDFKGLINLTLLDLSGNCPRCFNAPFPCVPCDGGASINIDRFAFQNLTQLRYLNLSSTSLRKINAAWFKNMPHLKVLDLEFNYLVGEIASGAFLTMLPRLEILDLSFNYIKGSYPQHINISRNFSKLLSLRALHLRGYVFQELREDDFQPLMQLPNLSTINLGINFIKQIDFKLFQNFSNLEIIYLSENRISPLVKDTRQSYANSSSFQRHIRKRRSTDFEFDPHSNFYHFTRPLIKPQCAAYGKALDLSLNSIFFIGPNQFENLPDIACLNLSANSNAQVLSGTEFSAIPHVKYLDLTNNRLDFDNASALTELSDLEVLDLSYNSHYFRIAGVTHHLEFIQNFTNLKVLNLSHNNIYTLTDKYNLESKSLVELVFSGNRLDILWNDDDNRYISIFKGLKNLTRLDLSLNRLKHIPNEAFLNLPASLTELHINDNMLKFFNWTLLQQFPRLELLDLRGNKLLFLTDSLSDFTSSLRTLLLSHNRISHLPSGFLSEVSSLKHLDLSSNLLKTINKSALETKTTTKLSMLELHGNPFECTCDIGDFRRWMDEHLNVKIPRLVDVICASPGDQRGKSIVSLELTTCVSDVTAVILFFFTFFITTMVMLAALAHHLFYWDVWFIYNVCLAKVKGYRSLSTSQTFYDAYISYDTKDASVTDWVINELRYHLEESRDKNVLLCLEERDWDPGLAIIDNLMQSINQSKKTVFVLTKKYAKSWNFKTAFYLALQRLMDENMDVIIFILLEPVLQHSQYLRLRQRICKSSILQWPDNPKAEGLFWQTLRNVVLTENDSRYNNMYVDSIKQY
As to the kind of experiment: TLR8 inhibition reporter assay (HEK-Blue SEAP reporter, R848 stimulation). As to conditions: HEK-Blue cells overexpressing human TLR8, SEAP reporter, R848 15.9 μM, 22 hour incubation. The gist of the method: (§1)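 Dose–response from 0.05 nM to 50 μM was run in HEK-Blue human TLR7, TLR8 and TLR9 reporter cells. After 30 min at room temperature with compound, ligand was added (TLR7 gardiquimod 7.5 μM; TLR8 R848 15.9 μM; TLR9 ODN2006 5 nM) and SEAP measured next day, at 22 h.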
A general note: A reporter such as luciferase makes a cellular process visible.

Experiment [2] has as its target T2, human TLR7 (Homo sapiens, UniProt Q9NYK1).
T2 construct: host or cells: HEK-Blue cells
T2 sequence (Q9NYK1 27-1049): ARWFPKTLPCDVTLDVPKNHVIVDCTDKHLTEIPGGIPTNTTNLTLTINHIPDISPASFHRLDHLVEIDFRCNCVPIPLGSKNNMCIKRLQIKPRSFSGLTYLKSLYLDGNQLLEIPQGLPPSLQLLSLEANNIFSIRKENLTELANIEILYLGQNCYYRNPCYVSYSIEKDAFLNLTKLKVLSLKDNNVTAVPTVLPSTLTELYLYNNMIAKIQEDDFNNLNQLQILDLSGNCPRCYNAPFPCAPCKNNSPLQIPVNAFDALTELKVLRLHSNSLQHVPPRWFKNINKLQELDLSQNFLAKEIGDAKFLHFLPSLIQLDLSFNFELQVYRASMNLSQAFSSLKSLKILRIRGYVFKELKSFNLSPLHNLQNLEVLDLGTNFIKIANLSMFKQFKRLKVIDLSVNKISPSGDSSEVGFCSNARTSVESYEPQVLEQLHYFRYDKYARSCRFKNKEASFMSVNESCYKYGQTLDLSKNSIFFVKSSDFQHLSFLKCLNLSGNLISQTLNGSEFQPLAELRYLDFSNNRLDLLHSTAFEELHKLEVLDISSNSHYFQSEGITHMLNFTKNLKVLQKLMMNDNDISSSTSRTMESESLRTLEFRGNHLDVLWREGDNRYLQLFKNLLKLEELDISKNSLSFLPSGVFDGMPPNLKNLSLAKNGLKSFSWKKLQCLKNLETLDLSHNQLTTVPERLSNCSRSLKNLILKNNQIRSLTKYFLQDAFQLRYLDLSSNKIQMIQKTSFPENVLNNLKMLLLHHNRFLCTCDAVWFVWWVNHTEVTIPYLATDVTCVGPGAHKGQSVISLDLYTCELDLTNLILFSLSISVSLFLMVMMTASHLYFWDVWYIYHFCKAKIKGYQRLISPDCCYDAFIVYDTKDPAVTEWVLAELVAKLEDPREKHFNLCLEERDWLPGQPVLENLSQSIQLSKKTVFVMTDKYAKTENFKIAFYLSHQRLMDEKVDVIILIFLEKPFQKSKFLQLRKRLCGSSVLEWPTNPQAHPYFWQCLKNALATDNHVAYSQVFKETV
The experiment can be described thus: TLR7 inhibition reporter assay (HEK-Blue SEAP reporter, gardiquimod stimulation). As to conditions: HEK-Blue cells overexpressing human TLR7, SEAP reporter, gardiquimod 7.5 μM, 22 hour incubation. The gist of the method:
as §1

Experiment [3] concerns the target T3, human TLR9 (Homo sapiens, UniProt Q9NR96).
T3 construct: host or cells: HEK-Blue cells
T3 sequence (Q9NR96 26-1032): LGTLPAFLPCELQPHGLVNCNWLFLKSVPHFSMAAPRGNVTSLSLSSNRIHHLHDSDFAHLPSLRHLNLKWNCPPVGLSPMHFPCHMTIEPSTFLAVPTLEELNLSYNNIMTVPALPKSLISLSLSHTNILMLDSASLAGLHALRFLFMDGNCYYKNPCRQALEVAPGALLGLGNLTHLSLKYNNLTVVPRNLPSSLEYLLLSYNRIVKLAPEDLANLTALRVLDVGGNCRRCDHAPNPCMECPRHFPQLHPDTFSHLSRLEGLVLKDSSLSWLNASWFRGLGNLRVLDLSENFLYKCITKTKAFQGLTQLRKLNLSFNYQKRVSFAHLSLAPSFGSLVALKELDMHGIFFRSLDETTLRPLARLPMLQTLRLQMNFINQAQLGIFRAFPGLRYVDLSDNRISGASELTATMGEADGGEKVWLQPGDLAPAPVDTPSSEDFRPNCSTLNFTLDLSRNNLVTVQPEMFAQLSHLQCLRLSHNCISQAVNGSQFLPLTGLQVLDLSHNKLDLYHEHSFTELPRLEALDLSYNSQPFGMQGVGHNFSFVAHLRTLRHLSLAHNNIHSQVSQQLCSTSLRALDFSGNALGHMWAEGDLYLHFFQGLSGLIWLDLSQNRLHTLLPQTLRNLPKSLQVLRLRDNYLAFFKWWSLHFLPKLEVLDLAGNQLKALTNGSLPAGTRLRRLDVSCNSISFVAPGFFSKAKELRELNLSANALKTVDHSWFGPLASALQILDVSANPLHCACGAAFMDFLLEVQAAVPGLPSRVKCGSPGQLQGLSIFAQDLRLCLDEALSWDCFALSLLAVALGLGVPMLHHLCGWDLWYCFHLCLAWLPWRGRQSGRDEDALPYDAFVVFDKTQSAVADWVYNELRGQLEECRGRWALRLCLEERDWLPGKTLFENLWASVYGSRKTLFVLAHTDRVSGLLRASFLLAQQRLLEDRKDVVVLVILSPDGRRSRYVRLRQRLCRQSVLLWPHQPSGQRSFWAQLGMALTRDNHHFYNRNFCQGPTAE
The experiment can be described thus: TLR9 inhibition reporter assay (HEK-Blue SEAP reporter, ODN2006 stimulation). As to conditions: HEK-Blue cells overexpressing human TLR9, SEAP reporter, ODN2006 5 nM, 22 hour incubation. The gist of the method: as §1

This passage reports IC50 results from patent publication US11447466B2, “Substituted indole compounds useful as inhibitors of TLR7/8/9” (BRISTOL-MYERS SQUIBB COMPANY, priority 2017, dated 2022).

As usually defined, the IC50 is the concentration needed to halve the response being measured. The low end stands for greater potency in that assay, the high end for weaker potency in that assay.

Regarding `CCCCN1CCC(c2ccc3[nH]c(-c4cn(C)c(=O)c(Cl)c4C)c(C(C)C)c3c2)CC1` [Example 251, 5-(5-(1-butylpiperidin-4-yl)-3-isopropyl-1H-indol-2-yl)-3-chloro-1,4-dimethylpyridin-2(1H)-one], the IC50 in experiment [1] worked out at 0.0081 µM; in experiment [2], 0.0035 µM; in experiment [3], 3.53 µM.

On to `Cc1cc(-c2[nH]c3ccc(C4CCN([C@@H]5CCNC5=O)CC4)cc3c2C(C)C)cn(C)c1=O` [Example 123, (R)-5-(3-isopropyl-5-(1-(2-oxopyrrolidin-3-yl)piperidin-4-yl)-1H-indol-2-yl)-1,3-dimethylpyridin-2(1H)-one], for which the results for the IC50 in experiment [1], in experiment [2] and in experiment [3] were 0.008 µM, 0.007 µM and 23.8 µM, respectively.

`Cc1c(-c2[nH]c3ccc(C4CCN(CC(=O)N(C)C)CC4)cc3c2C(C)C)cn(C)c(=O)c1C` [Example 134, 2-(4-(3-isopropyl-2-(1,4,5-trimethyl-6-oxo-1,6-dihydropyridin-3-yl)-1H-indol-5-yl)piperidin-1-yl)-N,N-dimethylacetamide]: the results for the IC50 in experiment [1], in experiment [2] and in experiment [3] were 0.0087 µM, 0.0119 µM and 3.46 µM, respectively.

Regarding `Cc1cc(-c2[nH]c3ccc(C4CCN(CC(=O)N5CC[C@@H](O)C5)CC4)cc3c2C(C)C)cn(C)c1=O` [Example 120, (R)-5-(5-(1-(2-(3-hydroxypyrrolidin-1-yl)-2-oxoethyl)piperidin-4-yl)-3-isopropyl-1H-indol-2-yl)-1,3-dimethylpyridin-2(1H)-one], the IC50 in experiment [1] is 0.0115 µM; in experiment [2], 0.0074 µM; in experiment [3], 0.851 µM.

For the compound `Cc1cc(-c2[nH]c3ccc(C4CCN(C)CC4)cc3c2C(C)C)cn(CCO)c1=O` [Example 264, 1-(2-hydroxyethyl)-5-(3-isopropyl-5-(1-methylpiperidin-4-yl)-1H-indol-2-yl)-3-methylpyridin-2(1H)-one], the values for the IC50 in experiment [1], in experiment [2] and in experiment [3] were 0.927 µM, 0.0135 µM and 6.09 µM, respectively.

For the compound `Cc1cc(-c2[nH]c3ccc(C4CCN(C5CCC(C(C)(C)O)CC5)CC4)cc3c2C(C)C)cn(C)c1=O` (stereo not drawn) [Example 270, 5-(5-(1-(4-(2-hydroxypropan-2-yl)cyclohexyl)piperidin-4-yl)-3-isopropyl-1H-indol-2-yl)-1,3-dimethylpyridin-2(1H)-one], the IC50 turned out to be 0.0047 µM in experiment [1], 0.0021 µM in experiment [2] and 4.16 µM in experiment [3].

With `Cc1nc(-c2[nH]c3ccc(C4CCN(CC(=O)N(C)C)CC4)cc3c2C(C)C)cn(C)c1=O` [Example 115, 2-(4-(2-(4,6-dimethyl-5-oxo-4,5-dihydropyrazin-2-yl)-3-isopropyl-1H-indol-5-yl)piperidin-1-yl)-N,N-dimethylacetamide], the half-inhibitory concentration (IC50) stood at 0.0421 µM in experiment [1], 0.048 µM in experiment [2] and 6.59 µM in experiment [3].

As for `Cc1c(-c2[nH]c3ccc(C4CCN(C(=O)C(F)(F)F)CC4)cc3c2C(C)C)cn(C)c(=O)c1Cl` [Example 302, 3-chloro-5-(3-isopropyl-5-(1-(2,2,2-trifluoroacetyl)piperidin-4-yl)-1H-indol-2-yl)-1,4-dimethylpyridin-2(1H)-one], the values for the IC50 in experiment [1], in experiment [2] and in experiment [3] were 0.214 µM, 0.0204 µM and at least 50 µM, respectively.

Regarding `Cc1c(-c2[nH]c3ccc(C4CCNCC4)cc3c2C(C)C)cn(C)c(=O)c1C` [Example 14, 5-(3-isopropyl-5-(piperidin-4-yl)-1H-indol-2-yl)-1,3,4-trimethylpyridin-2(1H)-one], the results for the IC50 in experiment [1], in experiment [2] and in experiment [3] were 0.0036 µM, 0.0035 µM and 1.65 µM, respectively.

Regarding `CC(C)c1c(-c2ccc(=O)n(C)c2)[nH]c2ccc(C3CCN(C4CCOC4)CC3)cc12` (stereo not drawn) [Example 177, 5-(3-isopropyl-5-(1-(tetrahydrofuran-3-yl)piperidin-4-yl)-1H-indol-2-yl)-1-methylpyridin-2(1H)-one], the IC50 amounted to 0.0519 µM in experiment [1], 0.154 µM in experiment [2] and 9.21 µM in experiment [3].

`Cc1cc(-c2[nH]c3ccc(C4CCN(C5COC5)CC4)cc3c2C(C)C)nn(C)c1=O` [Example 189, 6-(3-isopropyl-5-(1-(oxetan-3-yl)piperidin-4-yl)-1H-indol-2-yl)-2,4-dimethylpyridazin-3(2H)-one]: the IC50 in experiment [1] turned out to be 0.025 µM; in experiment [2], 0.0255 µM; in experiment [3], 47.8 µM.

For the compound `Cc1cc(-c2[nH]c3ccc(C4CCN(C5COC5)CC4)cc3c2C(C)C)c(C)n(C)c1=O` [Example 211, 5-(3-isopropyl-5-(1-(oxetan-3-yl)piperidin-4-yl)-1H-indol-2-yl)-1,3,6-trimethylpyridin-2(1H)-one], the IC50 was 0.0171 µM in experiment [1], 0.0346 µM in experiment [2] and at least 50 µM in experiment [3].

As to `CC(C)c1c(-c2ccc(=O)n(CC(N)=O)c2)[nH]c2ccc(C3CCNCC3)cc12` [Example 49, 2-(5-(3-isopropyl-5-(piperidin-4-yl)-1H-indol-2-yl)-2-oxopyridin-1(2H)-yl)acetamide], the IC50 is 2.09 µM in experiment [1], 2.61 µM in experiment [2] and at least 50 µM in experiment [3].
